Publication PMC8286829, “Identifying SARS-CoV-2 antiviral compounds by screening for small molecule inhibitors of nsp14/nsp10 exoribonuclease” (Biochemical Journal, 2021)

Target: T1, nsp10–14 fusion protein (Severe acute respiratory syndrome coronavirus 2, UniProt P0DTD1)
T1 construct: gene rep; with Non-structural protein 10
Experiment: biochemical

O=C1C=C2C(=CCOC2O)O1 (stereo not shown) [patulin]
IC50: 1800 nM
